Measured values taken from PMC8249783, “A novel multikinase inhibitor SKLB‐YTH‐60 ameliorates inflammation and fibrosis in bleomycin‐induced lung fibrosis mouse models” (Cell Proliferation, 2021).
≈ marks a conversion by molar mass, not a printed value. Like-named read-outs stand apart in the source and are kept apart here.

Legend:
[1] = Determination of thermodynamic solubility; assay type: physicochemical; settings: thermodynamic from solid, double testing
Description: Weigh about 1 mg of the test compound into 1.5 mL centrifuge tube and add 0.5 mL various solvents, sonicating for 5 minutes (if the compound is completely dissolved, then added again test compound until a little solid remains). Take the supernatant after centrifugation, diluting to a suitable concentration using and measuring absorbance values by UV spectrophotometer. Weigh 10 mg compound accurately of the test compound into 1.5 mL centrifuge tube and add 1.2 mL methanol solution to prepare 8.3 mg·mL^−1 mother solution. Take the above described mother liquor to prepare the solution in concentrations of 8.3, 4.2, 2.1, 1.0, 0.52, 0.26 mg·mL^−1 then measure absorbance value. With concentration c (mg·mL^−1) as the abscissa, absorbance A as the ordinate, mapping and fitting line to get the standard curve (The correlation coefficient should be greater than 0.998). Calculate solubility according to the standard curve of the linear equation.

[2] = set-up: method as in PMID 25474320; settings: 50 mg·kg^−1 oral administration; cited from earlier work
[3] = test system: lung MDSCs and macrophages; assay: Flow cytometry of MDSCs and macrophages in lung tissue of BLM mice; assay type: in vivo, C57BL/6 mice; settings: 30 mg·kg^−1 i.p.
Description: Male C57BL/6 mice (8‐10 weeks old) were purchased from HFK Bioscience Co. Ltd. All animal experiments were permitted by the Institutional Animal Care and Treatment Committee of Sichuan University in China (New Permit Number: 20190524003). Lung fibrosis was induced using BLM treatment (2 mg·kg^−1). All C57BL/6 mice were divided into five groups (n = 10): a BLM + Nintedanib group (Nintedanib, 30 mg·kg^−1), a BLM + YTH‐60 group (YTH‐60, 15 mg·kg^−1 and 30 mg·kg^−1), a control group (Sham), and a bleomycin group (Vehicle). At the beginning, the mice were anaesthetized using 10% chloral hydrate, dissolved BLM with saline and administered intratracheally. To evaluate the preventive effect, the next day after BLM challenge, YTH‐60 and Nintedanib were administered intraperitoneally daily for 13 days (fibroproliferation) to the mice. All mice were sacrificed 24 hours after the last drug injection, the lungs and other organs were taken for the subsequent analysis. To test the therapeutic effect, after the 7th day of BLM treatment, mice were injected intraperitoneally with YTH‐60, Nintedanib and vehicle daily for 7 consecutive days (fibroproliferation).
We analysed the percentage of MDSCs and macrophages by Flow cytometry (FCM). ^22 Use scissors to cut approximately 30 mg of mouse lung tissues into small pieces and use 5 mL of collagenase‐IV with a concentration of 1 mg·mL^−1, digested at 37°C for at least 1 hour. Centrifuge at 400 g for 5 minutes and discard the supernatant. Then, add another 5 mL PBS to resuspend, after precipitation, taken the supernatant and mixed with the corresponding fluorochromium binding antibody, incubate for 30 minutes in the dark at 4°C (MDSCs with PE^−CD11b^−, FITC^−Gr1^− conjugated dual labelling and macrophages with PE^−F4/80^−, FITC^−CD11b^− conjugated dual labelling). The data were acquired with a FACS Canton II NovoCyte (ACEA).

- solubility at 5 min ([1]; organic solvent or mixture, Acetone, read-out: Solubility, Acetone): 9830 ± 420 µg/mL (≈ 18.2 mM)
- solubility at 5 min ([1]; organic solvent or mixture, Acetonitrile, read-out: Solubility, Acetonitrile): 3520 ± 64 µg/mL (≈ 6.53 mM)
- solubility at 5 min ([1]; organic solvent or mixture, Ethyl acetate, read-out: Solubility, Ethyl acetate): 9750 ± 350 µg/mL (≈ 18.1 mM)
- solubility at 5 min ([1]; organic solvent or mixture, Ethyl alcohol, read-out: Solubility, Ethyl alcohol): 12500 ± 2200 µg/mL (≈ 23.1 mM)
- solubility at 5 min ([1]; saline or isotonic, Normal saline, read-out: Solubility, Normal saline): 1930 ± 180 µg/mL (≈ 3.58 mM)
- solubility at 5 min ([1]; Water, read-out: Solubility, Water): 280 ± 15 µg/mL (≈ 0.519 mM)
Structure (SMILES): COC(=O)c1ccc2c(c1)NC(=O)/C2=C(\Nc1ccc(N(C)C(=O)CN2CCN(C)CC2)cc1)c1ccccc1 [Nintedanib, reference compound]
- mean bioavailability [2]: 11.9%
- percentage of CD11b^+F4/80^+ cells (macrophages) in lung ([3]; day 14, BLM group 19.9%, sham 9.9%): 13.89%
- percentage of CD11b^+Gr1^+ cells (MDSCs) in lung ([3]; day 14, BLM group 20.5%, sham 5.14%): 10.46%
